Earlier results in patent US20190383817A1, “PREDICTING RESPONSE TO IMMUNOMODULATORY DRUGS (IMIDS) IN MULTIPLE MYELOMA PATIENTS” (SKYLINEDX B.V., priority 2016, published 2019).

Assays:
[1] = test system: IKAROS transcription factors; settings: compared with thalidomide
MM patients = settings: compared against non-Bortezomib containing regimes such as VAD
CRBN = settings: comparison among thalidomide, lenalidomide, pomalidomide

Compound | efficiency at targeting IKAROS transcription factors for degradation by CRBN [1] | Overall Survival (OS) (MM patients) | Progression Free Survival (PFS) (MM patients) | binding to CRBN (CRBN)
Cc1cccc2c1C(=O)N(C1CCC(=O)NC1=O)C2=O (stereo not drawn) [2-(2,6-dioxopiperidin-3-yl)-4-methylisoindoline-1,3-dione] | more efficient | – | – | –
CC(C)C[C@H](NC(=O)[C@H](Cc1ccccc1)NC(=O)c1cnccn1)B(O)O [Bortezomib] | – | significantly prolonged | significantly prolonged | –
Nc1cccc2c1C(=O)N(C1CCC(=O)NC1=O)C2=O (stereo not drawn) [pomalidomide, 4-Amino-2-(2,6-dioxopiperidin-3-yl)isoindole-1,3-dione] | more efficient | – | – | bind similarly to CRBN
O=C1CCC(N2C(=O)c3ccccc3C2=O)C(=O)N1 (stereo not drawn) [thalidomide, 2-(2,6-dioxopiperidin-3-yl)-1H-isoindole-1,3(2H)-dione] | – | – | – | bind similarly to CRBN
